{"source": "patent US12281328B2", "about": "“Photoreceptor cells for the treatment of retinal diseases” (Hadasit Medical Research Services and Development Ltd., priority 2017, dated 2025)", "test_system": "hESC-derived spheroid bodies (SBs), HAD-C102", "assay": "Real-time PCR of eye field, retinal progenitor and photoreceptor progenitor markers in SBs cultured with factor combinations", "format": "cell-based, human", "experimental": "SBs were generated under non-adherent conditions (day 0) from cord-feeder-conditioned media culture systems, or from feeder free laminin 521 culture systems, as described above. SBs were cultured in the following medium: […]® minus medium (Biological industries, Beit Haemek, Israel) supplemented with 50 U/ml penicillin and 50 μg/ml streptomycin (Gibco-BRL, Carlsbad, Calif.). In the initial 0 to 6 days of SBs culture (under non-adherent conditions), the medium was supplemented with 10 mM nicotinamide (Sigma, St. Louis, Mo.). It was further supplemented with the addition of the following factors in different combinations: 10 mM nicotinamide (Sigma, St. Louis, Mo.), 3 μM endo-IWR 1 (IWR1e; TOCRIS, a biotechne brand, Minneapolis, Minn.), 20 ng/ml bFGF (PeproTech Inc., Rocky Hill, N.J.), 5 ng/ml IGF1 (R&D Systems Inc., Minneapolis, Minn.) and 3 μM CHIR99021 (CHIR; PeproTech Inc., Rocky Hill, N.J.).\nReal-time PCR was used to determine the expression of eye field and retinal progenitor markers and photoreceptor progenitor markers. mRNA was extracted using QUICK-RNA Micro Prep, Zymo Research (Cat #R1051) and the RT reaction was accomplished with QSCRIPT™ reverse transcriptase (Quanta BioScience Inc., Gaithersburg, Md.). The levels of transcripts were monitored using commercially available TAQMAN™ Assay-on-Demand Gene Expression Products (Applies Biosystems, Foster City, Calif.). The expression of eye field and photoreceptor precursor markers were analyzed at time points of 14 days to 8 weeks. At Time point 0 (TO), the derivation of SBs and the beginning of their culture in non-adherent culture dishes were initiated.\nSBs were treated with combinations of NIC, bFGF, CHIR and IGF1 for 1 month. At the end of these culture periods, the expression of eye field and retinal progenitor markers (Rx, Six3, Six6, Chx10) and photoreceptor progenitor markers (NRL, CRX) was analyzed by Real-time PCR. […] FIG. 3 through FIG. 8 show graphs illustrating marker expression of Six3, Six6, Chx10, Rx, CRX, and NRL, respectively, in SBs cultured in NIC+bFGF or NIC+IGF or NIC+bFGF+CHIR for 4 weeks. Relative quantity of gene expression is plotted against different conditions. FIG. 9 through FIG. 14 show graphs illustrating marker expression of Six3, Six6, Chx10, Rx, CRX, and NRL, respectively, in SBs cultured in NIC+bFGF or NIC+bFGF+CHIR for 17 days. The control, HADC102, was comprised of undifferentiated HAD-C102 cells cultured for 6-7 days in […]® hPSC XF*Xeno-free medium for Human Pluripotent Stem Cells (Biological Industries).", "data": [{"molecule": "O=C(Nc1cccc2cccnc12)c1ccc(N2C(=O)[C@@H]3[C@H](C2=O)[C@@H]2C=C[C@H]3C2)cc1", "note": "[IWR1e, 4-[(3aR,4S,7R,7aS)-1,3,3a,4,7,7a-hexahydro-1,3-dioxo-4,7-metha-no-2H-isoindol-2-yl]-N-8-quinolinyl-benzamide]", "values": [{"measurement": "expression of markers of hESC-derived photoreceptor progenitors", "setting": "SBs cultured 20 days, Pax6, Six3, Rx, Six6, Chx10, FIG. 21-25", "result": "induced the expression of markers of hESC-derived photoreceptor progenitors"}, {"measurement": "expression of the eye field and retinal progenitor markers Pax6, Rx, Six3, Six6 and Chx10", "setting": "compared among NIC+IWR1e, NIC, IWR1e, IWR1e+bFGF, FIG. 26-35", "result": "much lower"}]}, {"molecule": "NC(=O)c1cccnc1", "note": "[NIC, nicotinamide]", "values": [{"measurement": "generation of photoreceptor cells from human pluripotent stem cells", "setting": "evidenced by expression of markers of photoreceptor cells (RT-PCR)", "result": "sufficient to generate photoreceptor cells from human pluripotent stem cells"}]}, {"molecule": "Laminin 521: laminin 521 (BioLamina) coating for feeder-free culture of hESCs before SB formation", "values": [{"measurement": "expression of all the markers analyzed (Rx, Pax6, Six3, Six6, Chx10)", "setting": "SBs from hESCs cultured on laminin 521 vs gelatin in cord feeder conditioned medium, NIH 5 weeks, FIG. 50-58", "result": "higher"}, {"measurement": "efficiency of differentiation", "setting": "initial culturing of hESC on laminin 521 vs gelatin in feeder cell conditioned medium", "result": "more efficient differentiation result"}]}]}
